Source: US5882851A, “Cytochrome P-450 monooxygenases” (Novartis Finance Corporation, priority 1993, dated 1999)

Target: T1, P-450TYR expressed in E. coli (Sorghum bicolor, UniProt Q43135)
T1 construct: in which the 35 N-terminal amino acids are replaced by the nine N-terminal amino acids from bovine 17α hydroxylase; nine N-terminal amino acids from bovine 17alpha-hydroxylase (replace the 35 N-terminal residues) (N); made in house; host or cells: E. coli JM109, vector pSP19g10L
Assay: Substrate binding spectra of P-450TYR expressed in E. coli
Source text: Cytochrome P-450TYR in the oxidized state has a strong absorption peak at 420 nm, representing the low spin state of the iron of the heme group. The binding of a ligand to the heme group shifts the absorption maximum by changing the spin state of the iron. Binding of tyrosine at the catalytic site of cytochrome P-450TYR induces a change of the spin state of the oxidized iron from low to high spin, and thereby changes the absorption maximum from 420 nm to 390 nm producing a type I spectrum (Jefcoate, Methods in Enzymology 52:258-279, 1978). The following experimental procedure is used to obtain the substrate binding spectrum: two identical cuvettes containing a buffered solution of the isolated cytochrome P-450 are prepared. The substrate of the enzyme is added to the sample cuvette whereas the same volume of buffer is added to the other cuvette. The difference spectrum is then recorded in an SLM-Aminco DW2c spectrophotometer. The absorption difference, A390-420, is proportional to the concentration of cytochrome P-450TYR with a bound substrate at its active site. If a saturating concentration of substrate is added to the sample cuvette, the absorption difference is proportional to the concentration of the substrate specific cytochrome P-450 in the cuvettes. The saturating concentration of the substrate is determined by titrating the cytochrome P-450 sample with increasing amounts of substrate and monitoring A390-420.
A modified cytocrome P-450TYR, in which the 35 N-terminal amino acids are replaced by the nine N-terminal amino acids from bovine 17α hydroxylase is introduced into the expression vector pSP19g10L which can be obtained from Dr. Henry Barnes (La Jolla, Calif.). This plasmid contains the lac Z promoter fused with the known short leader sequence (g10L) of gene 10 from bacteriophage T7 (Olin et al, 1988). A construct containing the N-terminal amino acids from bovine 17α hydroxylase and a truncated form of the P-450TYR gene is designed using PCR mutagenesis: Oligonucleotide TYROL 1d (5'-CGGGATCCATATGGCTCTGTTATTAGCAGTTTTTCTGTCGTACCTGGCCCG-3'; SEQ ID NO 23) containing a 5' mutant cDNA sequence as well as a BamHI and NdeI restriction site is used together with oligonucleotide TYROL 3 comprising the sequence surrounding the unique BamHI restriction site downstream of the ATG start codon of the cDNA coding for P-450TYR to amplify a modified N-terminal sequence of P-450TYR. The amplification product is cut with NdeI and BamHI restriction enzymes. To introduce a HindIII site immediately downstream of the stop codon of the P-450TYR gene, oligonucleotides TYROL 2 and TYROL 4 are used in a polymerase chain reaction to obtain a C-terminal fragment of the P-450TYR gene comprising a HindIII restriction site immediately downstream of the stop codon. The amplification product is cut with PstI and HindIII restriction enzymes. The complete expression plasmid is constructed by simultaneous ligation of the N-terminal NdeI/BamHI fragment, the BamHI/PstI fragment of the P-450TYR gene and the C-terminal PstI/HindIII fragment into NdeI/HindIII cleaved pSP19g10L vector DNA. The expression vector obtained is transformed into E. coli strain JM109. Transformed E. coli produce 300 nmol to 500 nmol cytochrome P-450TYR per liter cell culture upon growth at 28° C. in the presence of 1 mM isopropyl-β-D-thiogalactopyranoside and at 125 rpm. Expression levels as high as 900 nmol per liter, equivalent to 55 mg P-450TYR per liter, have been obtained. […]

T1 sequence (Q43135 other isoform, or with tags, fused parts or gaps): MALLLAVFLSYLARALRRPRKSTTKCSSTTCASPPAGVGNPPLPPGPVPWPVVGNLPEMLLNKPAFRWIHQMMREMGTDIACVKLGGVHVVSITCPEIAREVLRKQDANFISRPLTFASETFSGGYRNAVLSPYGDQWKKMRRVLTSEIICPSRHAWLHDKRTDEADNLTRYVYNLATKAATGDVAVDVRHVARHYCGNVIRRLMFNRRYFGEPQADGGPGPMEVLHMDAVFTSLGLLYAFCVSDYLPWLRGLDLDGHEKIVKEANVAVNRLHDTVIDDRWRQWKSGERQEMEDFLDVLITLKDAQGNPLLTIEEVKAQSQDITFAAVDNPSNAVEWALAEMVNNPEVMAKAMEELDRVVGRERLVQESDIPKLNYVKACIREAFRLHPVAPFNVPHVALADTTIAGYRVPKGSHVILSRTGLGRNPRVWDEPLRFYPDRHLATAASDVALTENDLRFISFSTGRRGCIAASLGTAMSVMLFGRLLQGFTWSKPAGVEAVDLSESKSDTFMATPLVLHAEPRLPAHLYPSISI

Question: For `N[C@@H](Cc1ccc(O)cc1)C(=O)O` [tyrosine, L-tyrosine], which “molar extinction coefficient E420-390” value is on record?
Answer: The value was 75.8 cm⁻¹ mM⁻¹.
